Data on 53 compounds can be found in US7897781B2, “Cold menthol receptor-1 antagonists” (Janssen Pharmaceutica NV, priority 2006, dated 2011).

The experiment deals with T1, canine TRPM8 (Canis lupus familiaris, UniProt Q1A7N1).
T1 construct: expressed in transfected cells
Nature of the experiment: In vitro canine TRPM8 functional assay (Ca2+-sensitive dye, icilin activation; Table 4 TRPM8 Screening). In kind it is cell-based. The settings on record: HEK293 cells expressing canine TRPM8, icilin activation; for % I (1 μM): compound at 1 μM; for % I (5 μM): compound at 5 μM; for % I (0.5 μM) / inhibition at 0.5 µM: compound at 0.5 μM; for inhibition at 0.5 µM: read-out: % I (0.5 μM). As for the experimental part:
The functional activity of compounds of Formula (I) was determined by measuring changes in intracellular calcium concentration using a Ca^2+-sensitive fluorescent dye. The changes in fluorescent signal were monitored by a fluorescence plate reader, either a FLIPR™ (Molecular Devices) or FDSS (Hamamatsu).
HEK293 cells stably expressing canine TRPM8 were routinely grown as monolayers in Dulbecco's minimum essential medium supplemented with 10% FBS, 1 mM L-glutamine, 100 units/mL penicillin, 100 ug/mL streptomycin and 400 μg/mL G418. Cells were maintained in 5% CO2 at 37° C. At 24 hrs prior to assay, cells were seeded in clear-base poly-D-lysine coated 384-well plates (BD Biosciences, NJ, USA) at a density of 5,000 cells per well in culture medium and grown overnight in 5% CO2 at 37° C. On assay day, growth media was removed and cells were loaded with Calcium 3 Dye (Molecular Devices) for 35 min at 37° C., under 5% CO2 and then for 25 min at room temperature and atmosphere. Subsequently, cells were tested for agonist-induced increases in intracellular Ca^2+ levels using FLIPR™ or FDSS. Cells were challenged with a compound of Formula (I) (at varying concentrations) and intracellular Ca^2+ was measured for 5 min prior to the addition of icilin to all wells to achieve a final concentration which produces approximately an 80% maximal response.
Basal FI was subtracted prior to normalizing data to percent of maximal response. Curves were generated using the average of quadruplicate wells for each data point, were analyzed using nonlinear regression of either sigmoidal dose response or sigmoidal dose response (variable slope). Finally, the EC50 and IC50 values were calculated with the best-fit dose curve determined by GraphPad Prism.

“And” between values parts separate entries of the source, which are not always exact repeats. Identical values can stand only once.

T1 sequence (Q1A7N1 1-1104): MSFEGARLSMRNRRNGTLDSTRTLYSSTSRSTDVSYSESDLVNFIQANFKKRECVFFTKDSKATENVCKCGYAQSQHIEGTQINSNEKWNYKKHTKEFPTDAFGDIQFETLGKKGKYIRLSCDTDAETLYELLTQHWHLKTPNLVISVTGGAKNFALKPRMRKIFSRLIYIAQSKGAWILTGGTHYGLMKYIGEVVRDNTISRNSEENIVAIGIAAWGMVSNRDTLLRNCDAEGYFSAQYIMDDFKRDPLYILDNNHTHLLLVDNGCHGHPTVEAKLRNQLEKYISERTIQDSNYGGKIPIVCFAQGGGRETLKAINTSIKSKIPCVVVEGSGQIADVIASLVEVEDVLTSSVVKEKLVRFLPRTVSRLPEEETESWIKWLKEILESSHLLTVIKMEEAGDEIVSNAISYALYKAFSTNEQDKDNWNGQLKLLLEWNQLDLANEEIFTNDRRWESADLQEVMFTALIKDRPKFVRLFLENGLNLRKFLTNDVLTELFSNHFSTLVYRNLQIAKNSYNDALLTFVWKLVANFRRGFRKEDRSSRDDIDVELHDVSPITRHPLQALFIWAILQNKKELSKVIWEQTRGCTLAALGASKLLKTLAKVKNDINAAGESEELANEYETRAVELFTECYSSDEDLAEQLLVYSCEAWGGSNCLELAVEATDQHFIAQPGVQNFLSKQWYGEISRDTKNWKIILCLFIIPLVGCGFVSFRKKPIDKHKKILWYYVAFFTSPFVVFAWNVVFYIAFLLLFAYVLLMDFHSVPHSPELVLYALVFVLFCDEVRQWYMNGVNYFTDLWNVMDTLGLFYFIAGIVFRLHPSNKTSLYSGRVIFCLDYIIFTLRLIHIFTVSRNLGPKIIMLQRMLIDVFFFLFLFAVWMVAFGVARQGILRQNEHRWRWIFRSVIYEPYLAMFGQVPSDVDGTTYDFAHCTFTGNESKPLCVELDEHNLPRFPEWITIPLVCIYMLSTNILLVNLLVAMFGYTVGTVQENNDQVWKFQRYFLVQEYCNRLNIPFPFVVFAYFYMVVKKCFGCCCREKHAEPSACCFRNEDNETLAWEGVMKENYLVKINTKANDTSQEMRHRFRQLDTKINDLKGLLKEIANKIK

Take `CCOP(=O)(OCC)C(Cc1ccc(F)c(F)c1)C1=C(C)c2ccccc2S1(=O)=O` (centres unmarked) [Cpd 88, [2-(3,4-Difluoro-phenyl)-1-(3-methyl-1,1-dioxo-1H-1λ^6-benzo-[b]thiophen-2-yl)-ethyl]-phosphonic acid diethyl ester]: the “% I (1 μM)” value is on record as 89%.
With `CCOP(=O)(OCC)C(Cc1ccccc1C)c1cc2ccccc2s1` (centres unmarked) [Cpd 89], the “% I (1 μM)” value was 91% and the “% I (5 μM)” value worked out at 100%.
As to `CCOP(=O)(OCC)C(Cc1cc2ccccc2s1)c1cc2ccccc2s1` (centres unmarked) [Cpd 90], the “% I (1 μM)” value is recorded as 89%.
Turning to `CCOP(=O)(OCC)C(Cc1c(Cl)cccc1Cl)c1cc2ccccc2s1` (centres unmarked) [Cpd 95], the “% I (1 μM)” value was determined as 89% and the “% I (5 μM)” value is 100%.
Consider `CCOP(=O)(OCC)C(Cc1cc(C(F)(F)F)cc(C(F)(F)F)c1)c1cc2ccccc2s1` (centres unmarked) [Cpd 96], for which the “% I (1 μM)” value is 92%.
Regarding `CCOP(=O)(OCC)C(Cc1ccc(F)cc1Cl)c1cc2ccccc2s1` (centres unmarked) [Cpd 98], the “% I (1 μM)” value was found to be 79%.
As to `CCOP(=O)(OCC)C(Cc1cc(C(F)(F)F)ccc1Cl)c1sc2ccccc2c1C` (centres unmarked) [Cpd 99], the “% I (1 μM)” value amounted to 100%.
With `CCOP(=O)(OCC)C(Cc1cccc(Cl)c1Cl)c1cc2ccccc2s1` (centres unmarked) [Cpd 100], the “% I (1 μM)” value stood at 82%.
Turning to `CCOP(=O)(OCC)C(Cc1ccccc1C(F)(F)F)c1cc2ccccc2s1` (centres unmarked) [Cpd 102], the “% I (1 μM)” value stood at 86%.
With `CCOP(=O)(Cc1cc2ccccc2s1)OCc1ccc(F)cc1` (centres unmarked) [Cpd 107], the “% I (5 μM)” value came to 99%.
With `CCOP(=O)(Cc1cc2ccccc2s1)OCc1ccccc1Br` (centres unmarked) [Cpd 110], the “% I (1 μM)” value came to 11% and the “% I (5 μM)” value is on record as 96%.
For `CCOP(=O)(Cc1cc2ccccc2s1)OCc1ccccc1` (centres unmarked) [Cpd 111], the “% I (1 μM)” value is given as 14%.
`CCOP(=O)(OCC)C(Cc1cc2c(cc1Cl)OCO2)c1cc2ccccc2s1` (centres unmarked) [Cpd 112]: the “% I (1 μM)” value came out at 42%.
With `CCOP(=O)(OCC)C(Cc1cc(C(F)(F)F)ccc1C(F)(F)F)c1sc2ccccc2c1C` (centres unmarked) [Cpd 113], the “% I (1 μM)” value came out at 25%.
For the compound `CCOP(=O)(OCC)C(Cc1ccccc1-c1ccccc1)c1sc2ccccc2c1C` (centres unmarked) [Cpd 115], the “% I (1 μM)” value turned out to be 69%.
As to `CCOP(=O)(OCC)C(Cc1ccc(F)c(F)c1)c1sc2c(C(F)(F)F)cccc2c1C` (centres unmarked) [Cpd 116], the “% I (1 μM)” value was found to be 64%.
Consider `CCOP(=O)(OCC)C(Cc1ccc(F)c(F)c1)c1c(C)c2ccccc2[s+]1[O-]` (centres unmarked) [Cpd 118], for which the “% I (1 μM)” value was 23%.
On to `CC(C)OP(=O)(OC(C)C)C(Cc1cc(C(F)(F)F)cc(Cl)c1F)c1cc2ccccc2s1` (centres unmarked) [Cpd 126], for which the “% I (1 μM)” value worked out at 100%.
On the same count and under the same terms, as for `CCOP(=O)(OCC)C(Cc1ccc(F)c(F)c1)c1cc2cccnc2s1` (centres unmarked) [Cpd 131], the figure is 28%.
In the case of `CCOP(=O)(OCC)C(Cc1cccc(C(F)(F)F)c1)c1sc2ccccc2c1Br` (centres unmarked) [Cpd 141], the “% I (0.5 μM)” value was 100%.
Consider `CCOP(=O)(OCC)C(Cc1ccc(OC(F)(F)F)cc1)c1sc2ccccc2c1Br` (centres unmarked) [Cpd 155, [1-(3-Bromo-benzo[b]thiophen-2-yl)-2-(4-trifluoromethoxyphenyl)-ethyl]-phosphonic acid diethyl ester], for which the “% I (0.5 μM)” value was 101% and 102%.
Same read-out and setting: in the case of `CCOP(=O)(OCC)C(Cc1ccc(F)c(OC)c1)c1sc2ccccc2c1Br` (centres unmarked) [Cpd 156] it was 98%; in that of `COc1cc(CC(c2sc3ccccc3c2Br)P(=O)(OC(C)C)OC(C)C)ccc1F` (centres unmarked) [Cpd 157], 98%; in that of `CC(C)OP(=O)(OC(C)C)C(Cc1cccc(C(F)(F)F)c1Cl)c1sc2ccccc2c1Cl` (centres unmarked) [Cpd 177], 96%.
The same measure, in the same setting: in the case of `CC(C)OP(=O)(OC(C)C)C(Cc1cc(C(F)(F)F)ccc1Cl)c1sc2ccccc2c1Cl` (centres unmarked) [Cpd 178] it was 79%.
For `CC(C)OP(=O)(OC(C)C)C(Cc1ccccc1F)c1sc2ccccc2c1Br` (centres unmarked) [Cpd 196], the “% I (1 μM)” value stood at 100%.
On to `CC(C)OP(=O)(OC(C)C)C(Cc1ccccc1F)c1sc2cccc(Br)c2c1Br` (centres unmarked) [Cpd 198], for which the “% I (1 μM)” value amounted to 98%.
Regarding `CC(C)OP(=O)(OC(C)C)C(Cc1ccccc1F)c1sc2cc(Br)ccc2c1Br` (centres unmarked) [Cpd 199], the “% I (1 μM)” value is 81%.
The same measure, in the same setting: in the case of `CC(C)OP(=O)(OC(C)C)C(Cc1ccc(F)cc1)c1sc2cc(Br)ccc2c1Br` (centres unmarked) [Cpd 200] it was 81%.
Take `COP(=O)(OC)C(Cc1ccc(F)c(F)c1)c1sc2ccccc2c1Br` (centres unmarked) [Cpd 201]: the “% I (1 μM)” value is given as 100%.
Regarding `CCC(C)P(=O)(C(C)CC)C(Cc1ccc(F)c(F)c1)c1sc2ccccc2c1Br` (centres unmarked) [Cpd 203], the “% I (1 μM)” value worked out at 96%.
Regarding `COCCOCCOP(=O)(OCCOCCOC)C(Cc1ccc(F)c(F)c1)c1sc2ccccc2c1Br` (centres unmarked) [Cpd 210], the “% I (0.5 μM)” value was determined as 62%.
As to `CCOP(=O)(OCC)C(Cc1ccc(F)c(F)c1)c1sc2ccccc2c1-c1cccc(C(=O)OC)c1` (centres unmarked) [Cpd 219], the “% I (0.5 μM)” value was 68%.
For `CCOP(=O)(OCC)C(Cc1ccc(O)c(F)c1)c1sc2ccccc2c1Br` (centres unmarked) [Cpd 226], the “% I (0.5 μM)” value amounted to 34%.
For the compound `CC(C)OP(=O)(OC(C)C)C(Cc1ccc(O)c(F)c1)c1sc2ccccc2c1Br` (centres unmarked) [Cpd 227], the “% I (0.5 μM)” value was determined as 52%.
`CCOP(=O)(OCC)C(Cc1ccc(O)c(C(F)(F)F)c1)c1sc2ccccc2c1Br` (centres unmarked) [Cpd 233]: the “% I (0.5 μM)” value is 70%.
For `CC(C)OP(=O)(OC(C)C)[C@H](Cc1ccc(F)c(F)c1)c1sc2ccccc2c1Br` [Cpd 235, (R)-[1-(3-Bromo-benzo[b]thiophen-2-yl)-2-(3,4-difluoro-phenyl)-ethyl]-phosphonic acid diisopropyl ester], the “% I (0.5 μM)” value was determined as 93%.
The same measure, in the same setting: in the case of `CC(C)OP(=O)(OC(C)C)[C@H](Cc1ccc(F)c(C(F)(F)F)c1)c1sc2ccccc2c1Br` [Cpd 243, (R)-[1-(3-Bromo-benzo[b]thiophen-2-yl)-2-(4-fluoro-3-trifluoromethylphenyl)-ethyl]-phosphonic acid diisopropyl ester] it was 64%; in that of `CC(C)OP(=O)(OC(C)C)C(Cc1ccc(S(C)(=O)=O)cc1)c1sc2ccccc2c1Br` (centres unmarked) [Cpd 252], 44%.
Regarding `CCOP(=O)(OCC)C(Cc1ccc(F)c(F)c1)c1cc2ccccc2o1` (centres unmarked) [Cpd 265], the “% I (1 μM)” value came to 95%.
On to `CCOP(=O)(OCC)C(Cc1cc(C(F)(F)F)ccc1Cl)c1sc2ccccc2c1Cl` (centres unmarked) [Cpd 274], for which the “% I (0.5 μM)” value came out at 95%.
Regarding `CCOP(=O)(OCC)C(Cc1cc(O)cc(O)c1)c1sc2ccccc2c1Br` (centres unmarked) [Cpd 322], the “% I (0.5 μM)” value turned out to be 45%.
For `CCOP(=O)(OCC)C(Cc1ccc(O)cc1)c1sc2ccccc2c1Br` (centres unmarked) [Cpd 324], the “% I (0.5 μM)” value is on record as 54%.
With `CC(C)OP(=O)(OC(C)C)C(Cc1cccc(O)c1)c1sc2ccccc2c1Br` (centres unmarked) [Cpd 325], the “% I (0.5 μM)” value came to 97%.
With `CC(C)OP(=O)(OC(C)C)C(Cc1ccc(F)c(C(F)(F)F)c1)c1c(Br)c2ccccc2n1C(=O)OC(C)(C)C` (centres unmarked) [Cpd 327, 3-Bromo-2-[1-(diisopropoxy-phosphoryl)-2-(4-fluoro-3-trifluoromethyl-phenyl)-ethyl]-indole-1-carboxylic acid tert-butyl ester], the inhibition at 0.5 µM amounted to 44%.
Consider `CC(C)OP(=O)(OC(C)C)C(Cc1ccc(F)c(C(F)(F)F)c1)c1c(Br)c2ccccc2n1S(C)(=O)=O` (centres unmarked) [Cpd 330, [1-(3-Bromo-1-methanesulfonyl-1H-indol-2-yl)-2-(4-fluoro-3-trifluoromethyl-phenyl)-ethyl]-phosphonic acid diisopropyl ester], for which the inhibition at 0.5 µM stood at 103%.
Regarding `CCCS(=O)(=O)n1c(C(Cc2ccc(F)c(C(F)(F)F)c2)P(=O)(OC(C)C)OC(C)C)c(Br)c2ccccc21` (centres unmarked) [Cpd 332], the “% I (0.5 μM)” value is listed as 72%.
Turning to “(R)-[1-(3-Bromo-benzo[b]thiophen-2-yl)-2-(4-fluoro-phenyl)-ethyl]-phosphonic acid diisopropyl ester [Cpd 240]”, the “% I (0.5 μM)” value is 98% and 77%.
As for “(R)-[1-(3-Bromo-benzo[b]thiophen-2-yl)-2-(4-trifluoromethoxy-phenyl)ethyl]-phosphonic acid diisopropyl ester [Cpd 237]”, the “% I (0.5 μM)” value is 96% and 70%.
Consider “[2-(3,4-Difluoro-phenyl)-1-(3-methyl-benzo[b]thiophene-2-yl)-ethyl]-[3-(4-methoxy-phenyl)-propyl]-phosphonic acid ethyl ester [Cpd 135]”, for which the “% I (1 μM)” value is listed as 90%.
“[2-(3,4-Difluoro-phenyl)-1-(3-methyl-benzo[b]thiophene-2-yl)-ethyl]-[3-(4-methoxy-phenyl)-propyl]-phosphonic acid ethyl ester [Cpd 136]”: the “% I (1 μM)” value is given as 91%.
Turning to “[2-(3,4-Difluoro-phenyl)-1-(3-methyl-benzo[b]thiophene-2-yl)-ethyl]-methyl-phosphonic acid ethyl ester [Cpd 30]”, the “% I (1 μM)” value was 100% and 99%.
For “[2-(3,4-Difluoro-phenyl)-1-(3-methyl-benzo[b]thiophene-2-yl)-ethyl]-methyl-phosphonic acid ethyl ester [Cpd 106]”, the “% I (1 μM)” value is on record as 32%.
